Here are results for 13 compounds from ChEMBL document CHEMBL3228046, “A structural modification study of procarbazine” (1979).

Calls of active or inactive are those of the source. The calls are words filed in the database; no cut-off is given here.

The subject of one experiment is KB. In words: Antineoplastic activity against human KB cells. The experiment is classed as functional, cell-based.
Experiment [1] has as its system L1210. In words: Antineoplastic activity against mouse L1210 cells allografted in BDF1 mouse administered qd for 1 to 9 days starting 24 hrs after tumor cell implantation. The experiment is classed as functional, cell-based.
Experiment [2] concerns P388. In words: Antineoplastic activity against mouse P388 cells allografted in BDF1 mouse administered qd for 1 to 9 days starting 24 hrs after tumor cell implantation. The experiment is classed as functional, cell-based.
The test system of experiment [3] is P388. In words: Antineoplastic activity against mouse P388 cells allografted in BDF1 mouse at 800 mg/kg administered qd for 1 to 9 days starting 24 hrs after tumor cell implantation relative to control. The experiment is classed as functional.
Experiment [4] deals with L1210. In words: Antineoplastic activity against mouse L1210 cells allografted in BDF1 mouse at 50 mg/kg administered qd for 1 to 9 days starting 24 hrs after tumor cell implantation relative to control. The experiment is classed as functional.

As for `CONCc1ccc(C(=O)NC(C)C)cc1`, the result with KB, in the experiment with L1210 [1] and with P388 [2] was inactive.

In the case of `CC(C)NC(=O)c1ccc(CONC(=O)OCc2ccccc2)cc1`, the result in the experiment with KB, in the experiment with L1210 [1] and in the experiment on P388 [2] was inactive.

As to `CNC(=S)NCc1ccc(C(=O)NC(C)C)cc1`, the outcome with KB, in the experiment with L1210 [1] and in the experiment on P388 [2] was inactive.

For `CC(C)NC(=O)c1ccc(C/[N+]([O-])=C/c2ccccc2)cc1`, in the experiment with P388 [3], the T/C came out at 153.

As to `CC(C)NC(=O)c1ccc(CBr)cc1`, in the experiment on KB, the result was Active.

For `CNNCc1c[nH]c(=O)[nH]c1=O`, the outcome with KB, in the experiment on L1210 [1] and in the experiment on P388 [2] was inactive.

`CNC(=O)Nc1ccc(C(=O)NC(C)C)cc1` came in with a T/C in the experiment on L1210 [4] of 132.

On to `CNOCc1ccc(C(=O)NC(C)C)cc1`, for which the outcome in the experiment on KB, in the experiment with L1210 [1] and with P388 [2] was inactive.

Regarding `CO/[N+](=C\c1ccccc1)Cc1ccc(C(=O)NC(C)C)cc1`, the result with KB, in the experiment on L1210 [1] and in the experiment with P388 [2] was inactive.

In the case of `CC(C)NC(=O)c1ccc(CON(C)C(=O)OCc2ccccc2)cc1`, the outcome with KB, with L1210 [1] and in the experiment with P388 [2] was inactive.

Turning to `CNNCc1ccc(/C=N/NC(N)=S)cc1`, the result in the experiment on KB, in the experiment on L1210 [1] and with P388 [2] was inactive.

With `CNC(=O)NCc1ccc(C(=O)NC(C)C)cc1`, the outcome in the experiment on KB, in the experiment with L1210 [1] and in the experiment with P388 [2] was inactive.

In the case of `CNC(=S)Nc1ccc(C(=O)NC(C)C)cc1`, the outcome in the experiment on KB, with L1210 [1] and in the experiment on P388 [2] was inactive.
